# Experiments:
# [1] = test system: Gbe^ys/ys mice; test: Blood metabolic panel in Gbe^ys/ys mice; type: in vivo
# Protocol: FIGS. 3A-3I include a graph of the effect of Compound 1 on in vivo metabolism; mice were monitored by the Promethion High-Definition Behavioral Phenotyping System (Sable Instruments, Inc.) over a 24 hr period. Effective mass was calculated by power of 0.75. Data are mean±SEM from n=11 9 months old mice in the wt. control vehicle arm, n=6 9 months old mice in the GBE^ys/ys vehicle arm and n=7 9 months old mice in the Gbe^ys/ys 144DG11 (Compound 1)-treated arm. All injections were from the age of 4 months. […] Blood metabolic panel based on n=5, 9.5 months old mice treated as indicated (3I). Blood glucose was increased, and blood triglycerides decreased in Gbe^ys/ys […] by Compound 1 (p<0.05, Student's t-tests). *p<0.05 v wt. controls, #p<0.05 v GBE^ys/ys vehicle treated mice;
# The inventors further tested whether Compound 1 is able to correct the hypoglycemia and hyperlipidemia observed in Gbe^ys/ys mice. Such an effect is expected from an agent capable of inducing the catabolism of liver glycogen with an ensuing rise in blood glucose. […] Muscle (creatine kinase) and liver (alanine transferase) functions were not affected by this treatment (FIG. 3I).
# [2] = biological target: T1, LAMP1 (Homo sapiens, UniProt P11279); test: Cellular thermal shift assay (CETSA); type: binding
# T1 construct: endogenous in cells
# T1 sequence (P11279 29-417): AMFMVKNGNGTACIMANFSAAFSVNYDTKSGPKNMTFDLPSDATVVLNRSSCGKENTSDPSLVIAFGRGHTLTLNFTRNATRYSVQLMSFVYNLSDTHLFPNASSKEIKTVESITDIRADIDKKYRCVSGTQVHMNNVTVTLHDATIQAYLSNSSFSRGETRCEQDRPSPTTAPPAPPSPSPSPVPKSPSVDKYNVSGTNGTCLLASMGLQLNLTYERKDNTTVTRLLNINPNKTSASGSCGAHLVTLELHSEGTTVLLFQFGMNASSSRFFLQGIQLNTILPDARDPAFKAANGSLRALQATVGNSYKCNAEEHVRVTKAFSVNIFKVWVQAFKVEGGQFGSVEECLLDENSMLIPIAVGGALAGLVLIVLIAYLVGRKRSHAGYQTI
# Source text: FIGS. 5A-5E include images of experiments showing hetero-assembly forms around Compound 1 and not around endogenous molecules as shown by the liquid crystals formed in experiments 1-3 (5A); image of STRING network of targets at the interactome of Compound 1 (5B); cellular thermal shift assay (CETSA) of different targets of the Compound 1 hetero-assembly (5C); surface plasmon resonance sensograms of binding of Compound 1 to LAMP1 (5D); sensogram experiments consisting of association and dissociation at the indicated concentration ranges and pH values were then conducted.
# The inventors have investigated the mechanism of action of 144DG11. To that end, the inventors first decided to determine its molecular target. Nematic protein organization technique (NPOT, Inoviem, Ltd.) was applied to homogenates of APBD patient fibroblasts. The NPOT analysis has discovered protein hetero assemblies uniquely generated around 144DG11 only when it was added to the cell homogenates (FIG. 5A). The next step in this analysis has identified the interactome of protein targets interacting with 144DG11 in APBD patients' fibroblasts. […] In the search for a putative binding site for Compound 1 in LAMP1, the inventors have analyzed the N- and C-terminal subdomains of its luminal domain (residues A29-R195 and S217-D378, respectively), which have a similar topology. […]
# [3] = test system: microglia cells from brains of 5XFAD mice; test: LC3, p62 and PAS staining of microglia from AD model; type: cell-based; conditions: 50 μM, 24 h
# Protocol: FIGS. 19A-19B include fluorescent micrographs showing microglia cells which were isolated from the brains of AD modeling 5XFAD mice by CD11b magnetic beads. Microglia were then incubated for 24 h with (treated), or without (untreated) 50 μM 144DG11, fixed and stained for the autophagic substrates LC3 (19A) and p62 (19B) and for glycogen by PAS, all as indicated. Reduction in the levels of both LC3 and p62 indicate induction of autophagy which degrades these substrates.
# Being the most pro-inflammatory tissue in the brain, microglia are currently at the epicenter of innovative therapeutic research for AD. Moreover, as neuroinflammation is now accepted as the main pathogenic factor in AD and as activation of microglia autophagy and mitophagy is a leading therapeutic strategy (see, for instance, Eshraghi et al., (2021)), 144DG11 holds promise as a potential AD therapeutic.
smiles,measurement,setting,value
COCCN(Cc1sccc1C)C(=O)c1cc(C)nc(O)c1 [Compound 1],hypoglycemia and hyperlipidemia,[1]; 9.5 months old mice,corrected to control levels
same,muscle (creatine kinase) and liver (alanine transferase) functions,[1]; 9.5 months old mice,not affected
same,blood glucose,"[1]; 9.5 months old, p<0.05",increased
same,blood triglycerides,"[1]; 9.5 months old, p<0.05",decreased
same,increase in LAMP1 levels,[2],1.2 fold
same,interaction with LAMP1 (not other protein targets; 6 of 8 NPOT targets tested),[2],directly interacts
same,glycogen levels,[3],did not lower glycogen levels
same,total LC3 and p62,[3],decrease

# Reference: patent publication US20240139167A1, “LYSOSOME-ASSOCIATED MEMBRANE PROTEIN TARGETING COMPOUNDS AND USES THEREOF” (HADASIT MEDICAL RESEARCH SERVICES AND DEVELOPMENT LTD., priority 2021, published 2024)
